In ChEMBL document CHEMBL4316600, “Electrostatic Complementarity as a Fast and Effective Tool to Optimize Binding and Selectivity of Protein-Ligand Complexes” (J Med Chem, 2019):
pIC50: −log10 of the molar value.

These molecules were tested against Dual specificity mitogen-activated protein kinase kinase 1 (Homo sapiens, UniProt Q02750) (assay: Inhibition of MEK1 (unknown origin)).
Chain of Dual specificity mitogen-activated protein kinase kinase 1 (Q02750 whole entry): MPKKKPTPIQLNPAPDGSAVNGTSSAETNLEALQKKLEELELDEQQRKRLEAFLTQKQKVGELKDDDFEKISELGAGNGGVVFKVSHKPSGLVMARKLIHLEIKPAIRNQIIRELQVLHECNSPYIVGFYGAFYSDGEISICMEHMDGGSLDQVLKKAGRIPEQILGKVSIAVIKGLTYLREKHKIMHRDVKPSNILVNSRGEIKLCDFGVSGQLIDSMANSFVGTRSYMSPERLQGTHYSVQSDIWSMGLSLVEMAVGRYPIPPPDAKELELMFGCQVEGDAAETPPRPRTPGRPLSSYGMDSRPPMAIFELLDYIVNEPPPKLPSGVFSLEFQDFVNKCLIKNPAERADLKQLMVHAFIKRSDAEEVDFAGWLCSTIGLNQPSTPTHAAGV

pIC50	Structure (SMILES)
6.92	O=C(NOCCCO)c1ccc(F)c(F)c1Nc1ccc(F)cc1F
8.11	O=C(NOCCCO)c1ccc(F)c(F)c1Nc1ccc(Br)cc1F
8.70	O=C(NOCCCO)c1ccc(F)c(F)c1Nc1ccc(I)cc1F
7.59	O=C(NOCCCO)c1ccc(F)c(F)c1Nc1ccc(Cl)cc1F
